Reference: patent US8916702B2 (priority 2012, dated 2014)

Test system: HCV pseudoparticles (genotype 1a HCV E1 and E2 envelope, H77C isolate)
Test: microbe, parasite or virus in culture
Format: cell-based
Conditions: Hepatitis C virus, Huh-7, 48 h, HCV pseudoparticle infection of Huh7 cells, luciferase 2 days after infection; average of duplicates

How did the EC50 turn out when `CC(C)(CNC(=O)C(=O)NC1CCCCC1)CNC(=O)c1ccc(Nc2nc(NC3(c4ccc(Cl)cc4)CC3)nc(OCC(F)(F)F)n2)cc1` [Compound 1544] was run?
The EC50 was 80 pM.

How did the EC50 turn out when `COC(=O)[C@H](CCNC(=O)C(=O)NCC(C)c1ccccc1)NC(=O)c1ccc(Nc2nc(NC3(c4ccc(Cl)cc4)CC3)nc(OCC(F)(F)F)n2)cc1` (stereo partly drawn) [Compound 1307] was run?
The EC50 was 380 pM.

Same assay, conditions: Hepatitis C virus, Huh-7, 48 h, HCV pseudoparticles (genotype 1a, H77C) in Huh7 cells; average of duplicate; luciferase 2 days after infection

How did the EC50 turn out when `CC(C)(CNC(=O)C(=O)Nc1ccnn1-c1ccccc1)CNC(=O)c1ccc(Nc2nc(NC3(c4ccc(Cl)cc4)CC3)nc(OCC(F)(F)F)n2)cc1` [Compound 3029] was run?
Its EC50 is 71 pM.

Same assay, conditions: Hepatitis C virus, Huh-7, 48 h, read-out: Activity (EC50 class), HCV pseudoparticle infection of Huh7 cells, luciferase 2 days after infection; EC50 expressed as class A/B

With `COc1cccc(NC(=O)C(=O)NC[C@H](NC(=O)c2ccc(Nc3nc(NC4(c5ccc(Cl)cc5)CC4)nc(OCC(F)(F)F)n3)cc2)C(=O)O)c1` [Compound 1358] as the molecule, how does the EC50 read?
Its EC50 is 10 to 10000 pM.

For `COC(=O)[C@H](CCNC(=O)C(=O)Nc1ccc(-c2ccccc2)c(OC)c1)NC(=O)c1ccc(Nc2nc(NC3(c4ccc(Cl)cc4)CC3)nc(OCC(F)(F)F)n2)cc1` [Compound 1518], which EC50 is on record?
The EC50 was 10 to 10000 pM.

For `CN(C)C(=O)C(=O)NC[C@H](NC(=O)c1ccc(Nc2nc(NC3(c4ccc(Cl)cc4)CC3)nc(OCC(F)(F)F)n2)cc1)C(=O)O` [Compound 1007, (S)-2-(4-(4-(1-(4-chlorophenyl)cyclopropylamino)-6-(2,2,2-trifluoroethoxy)-1,3,5-triazin-2-ylamino)benzamido)-3-(2-(dimethylamino)-2-oxoacetamido)propanoic acid], which EC50 is on record?
The EC50 was 10 to 10000 pM.

Which EC50 does the source give for `COC(=O)[C@H](CCNC(=O)C(=O)Nc1cnn(C)c1)NC(=O)c1ccc(Nc2nc(NC3(c4ccc(Cl)cc4)CC3)nc(OCC(F)(F)F)n2)cc1` [Compound 1226] here?
Its EC50 is 10 to 10000 pM.

Which EC50 does the source give for `O=C(NCC[C@H](NC(=O)c1ccc(Nc2nc(NC3(c4ccc(Cl)cc4)CC3)nc(OCC(F)(F)F)n2)cc1)C(=O)O)C(=O)Nc1cccnc1` [Compound 1280] here?
Its EC50 is 10 to 10000 pM.

How did the EC50 turn out when `COC(=O)[C@@H](CCNC(=O)C(=O)NCC1(Cn2nc(C)cc2C)CC1)NC(=O)c1ccc(Nc2nc(NC3(c4ccc(Cl)cc4)CC3)nc(OCC(F)(F)F)n2)cc1` [Compound 1383] was run?
Its EC50 is 10 to 10000 pM.

With `CC(C)(CNC(=O)C(=O)NC1CCCCC1)CNC(=O)c1ccc(Nc2nc(NC3(c4ccc(Cl)cc4)CC3)nc(OCC(F)(F)F)n2)cc1` [Compound 1544] as the molecule, how does the EC50 read?
The EC50 was 10 to 10000 pM.

For `CCc1cccc(NC(=O)C(=O)NCC(C)(C)CNC(=O)c2ccc(Nc3nc(NC4(c5ccc(Cl)cc5)CC4)nc(OCC(F)(F)F)n3)cc2)c1` [Compound 1591], which EC50 is on record?
Its EC50 is 10 to 10000 pM.

For `COC(=O)[C@H](CCNC(=O)C(=O)NCC(C)c1ccccc1)NC(=O)c1ccc(Nc2nc(NC3(c4ccc(Cl)cc4)CC3)nc(OCC(F)(F)F)n2)cc1` (stereo partly drawn) [Compound 1307], which EC50 is on record?
The EC50 was 10 to 10000 pM.

Same assay, conditions: Hepatitis C virus, Huh-7, 48 h, read-out: Activity (EC50 class), HCV pseudoparticles, Huh7 cells, luciferase 2 days after infection; average of duplicates

`COC(=O)[C@H](CNC(=O)C(=O)Nc1ccc(OCCN2CCCCC2)nc1)NC(=O)c1ccc(Nc2nc(NC3(c4ccc(Cl)cc4)CC3)nc(OCC(F)(F)F)n2)cc1` [Compound 3736] was tested. Which EC50 did it give?
Its EC50 is 10 to 10000 pM.

Same assay, conditions: Hepatitis C virus, Huh-7, read-out: Activity (EC50 class), HCV pseudoparticles (genotype 1a, H77C) in Huh7 cells; EC50 expressed as class A/B

For `CC(C)(CNC(=O)C(=O)Nc1ccccc1-c1ccccc1)CNC(=O)c1ccc(Nc2nc(NC3(c4ccc(Cl)cc4)CC3)nc(OCC(F)(F)F)n2)cc1F` [Compound 3556], which EC50 is on record?
Its EC50 is 10 to 10000 pM.

How did the EC50 turn out when `COC(=O)[C@H](CNC(=O)C(=O)Nc1ccc(N2CCN(Cc3ccccc3)CC2)cc1)NC(=O)c1ccc(Nc2nc(NC3(c4ccc(Cl)cc4)CC3)nc(OCC(F)(F)F)n2)cc1` [Compound 3102] was run?
The EC50 was 10 to 10000 pM.

How did the EC50 turn out when `CC(C)(CNC(=O)C(=O)Nc1ccnn1-c1ccccc1)CNC(=O)c1ccc(Nc2nc(NC3(c4ccc(Cl)cc4)CC3)nc(OCC(F)(F)F)n2)cc1` [Compound 3029] was run?
The EC50 was 10 to 10000 pM.

`O=C(NCC[C@H](NC(=O)c1ccc(Nc2nc(NC3(c4ccc(Cl)cc4)CC3)nc(OCC(F)(F)F)n2)cc1)C(=O)O)C(=O)Nc1ccc(Oc2cccnc2)cc1` [Compound 3545] was tested. Which EC50 did it give?
Its EC50 is 10 to 10000 pM.

For `Cc1cc(C)nc(N(C)c2ccc(NC(=O)C(=O)NC/C(=N/C(=O)c3ccc(Nc4nc(NC5(c6ccc(Cl)cc6)CC5)nc(OCC(F)(F)F)n4)cc3)C(=O)O)cc2)n1` [Compound 3171], which EC50 is on record?
Its EC50 is 10 to 10000 pM.

How did the EC50 turn out when `COC(=O)[C@H](CNC(=O)C(=O)Nc1ccc(N(C)c2nc(C)cc(C)n2)cc1)NC(=O)c1ccc(Nc2nc(NC3(c4ccc(Cl)cc4)CC3)nc(OCC(F)(F)F)n2)cc1` [Compound 3104] was run?
Its EC50 is 10 to 10000 pM.

`CC(C)(CNC(=O)C(=O)NOc1ccccc1)CNC(=O)c1ccc(Nc2nc(NC3(c4ccc(Cl)cc4)CC3)nc(OCC(F)(F)F)n2)cc1` [Compound 3064] was tested. Which EC50 did it give?
Its EC50 is 10 to 10000 pM.

For `COC(=O)[C@H](CNC(=O)C(=O)Nc1ccc(Cn2ccnc2)cc1)NC(=O)c1ccc(Nc2nc(NC3(c4ccc(Cl)cc4)CC3)nc(OCC(F)(F)F)n2)cc1` [Compound 3202], which EC50 is on record?
Its EC50 is 10 to 10000 pM.
